Our source for the MIC values is ChEMBL document CHEMBL2069251, “Synthesis and antifungal activity of 1-thia-4b-aza-cyclopenta[b]fluorene-4,10-diones” (2012).

≈ marks a conversion by molar mass, not a printed value.

What all share (format): functional
Experiment [1] relates to Pichia kudriavzevii. As to the kind of experiment: Antifungal activity against Candida krusei Berkout KCCM 11655 after 1 day by twofold broth dilution method. The note with it: Berkout KCCM 11655, 24 h.
Experiment [2] relates to Cryptococcus neoformans. The experiment can be described thus: Antifungal activity against Cryptococcus neoformans KCCM 50564 after 1 day by twofold broth dilution method. The note with it: KCCM 50564, 24 h.
Experiment [3] deals with Aspergillus niger. The experiment can be described thus: Antifungal activity against Aspergillus niger KCTC 1231 after 2 days by twofold broth dilution method. The settings on record: KCTC 1231, 48 h.
In experiment [4] the test system is Candida tropicalis. The experiment can be described thus: Antifungal activity against Candida tropicalis Berkout KCCM 50662 after 1 day by twofold broth dilution method. The settings on record: Berkout KCCM 50662, 24 h.
Experiment [5] deals with Candida albicans. The experiment can be described thus: Antifungal activity against Candida albicans Berkout KCCM 50235 after 1 day by twofold broth dilution method. The settings on record: Berkout KCCM 50235, 24 h.
Experiment [6] concerns Aspergillus flavus. The experiment can be described thus: Antifungal activity against Aspergillus flavus KCCM 11899 after 2 days by twofold broth dilution method. The settings on record: KCCM 11899, 48 h.

Consider `COC(=O)c1cc2c(s1)C(=O)c1c(C(C)=O)c3cc(Cl)ccn3c1C2=O`, for which the MIC in experiment [1] worked out at 50 µg/mL (≈ 129 µM); in experiment [2] it was 12.5 µg/mL (≈ 32.2 µM); in experiment [3], 6.3 µg/mL (≈ 16.2 µM); in experiment [4], 25 µg/mL (≈ 64.5 µM); in experiment [5] it was 50 µg/mL (≈ 129 µM); in experiment [6] it was 12.5 µg/mL (≈ 32.2 µM).
With `COC(=O)c1cc2c(s1)C(=O)c1c(C(C)=O)c3ccc(C)cn3c1C2=O`, the MIC in experiment [1] is 50 µg/mL (≈ 136 µM); in experiment [2] it was 12.5 µg/mL (≈ 34 µM); in experiment [3], 6.3 µg/mL (≈ 17.1 µM); in experiment [4] it was 25 µg/mL (≈ 68 µM); in experiment [5], 12.5 µg/mL (≈ 34 µM); in experiment [6] it was 12.5 µg/mL (≈ 34 µM).
In the case of `CCc1ccc2c(C(C)=O)c3c(n2c1)C(=O)c1cc(C(=O)OC)sc1C3=O`, the MIC in experiment [1] was 50 µg/mL (≈ 131 µM); in experiment [2], 6.3 µg/mL (≈ 16.5 µM); in experiment [3], 12.5 µg/mL (≈ 32.8 µM); in experiment [4], 50 µg/mL (≈ 131 µM); in experiment [5], 12.5 µg/mL (≈ 32.8 µM); in experiment [6] it was 6.3 µg/mL (≈ 16.5 µM).
Take `COC(=O)c1cc2c(s1)C(=O)c1c(C(C)=O)c3cc(C#N)ccn3c1C2=O`: the MIC is 25 µg/mL (≈ 66.1 µM) in experiment [1]; 6.3 µg/mL (≈ 16.7 µM) in experiment [2]; 12.5 µg/mL (≈ 33 µM) in experiment [3]; 25 µg/mL (≈ 66.1 µM) in experiment [4]; 25 µg/mL (≈ 66.1 µM) in experiment [5]; 12.5 µg/mL (≈ 33 µM) in experiment [6].
`COC(=O)c1cc2c(s1)C(=O)c1c(C(C)=O)c3ccc(F)cn3c1C2=O`: the minimum inhibitory concentration (MIC) in experiment [1] turned out to be 25 µg/mL (≈ 67.3 µM); in experiment [2], 50 µg/mL (≈ 135 µM); in experiment [3] it was 50 µg/mL (≈ 135 µM); in experiment [4], 25 µg/mL (≈ 67.3 µM); in experiment [5] it was 50 µg/mL (≈ 135 µM); in experiment [6], 50 µg/mL (≈ 135 µM).
Consider `COC(=O)c1cc2c(s1)C(=O)c1c(C(C)=O)c3ccc(Cl)cn3c1C2=O`, for which the minimal inhibitory concentration (MIC) was 6.3 µg/mL (≈ 16.2 µM) in experiment [1]; 3.2 µg/mL (≈ 8.25 µM) in experiment [2]; 12.5 µg/mL (≈ 32.2 µM) in experiment [3]; 3.2 µg/mL (≈ 8.25 µM) in experiment [4]; 12.5 µg/mL (≈ 32.2 µM) in experiment [5]; 25 µg/mL (≈ 64.5 µM) in experiment [6].
On to `COC(=O)c1cc2c(s1)C(=O)c1c(C(C)=O)c3ccc(Br)cn3c1C2=O`, for which the MIC amounted to 6.3 µg/mL (≈ 14.6 µM) in experiment [1]; 1.6 µg/mL (≈ 3.7 µM) in experiment [2]; 6.3 µg/mL (≈ 14.6 µM) in experiment [3]; 12.5 µg/mL (≈ 28.9 µM) in experiment [4]; 6.3 µg/mL (≈ 14.6 µM) in experiment [5]; 12.5 µg/mL (≈ 28.9 µM) in experiment [6].
`COC(=O)c1cc2c(s1)C(=O)c1c(C(=O)OC)c3ccccn3c1C2=O`: the MIC was 50 µg/mL (≈ 135 µM) in experiment [1]; 12.5 µg/mL (≈ 33.8 µM) in experiment [2]; 25 µg/mL (≈ 67.7 µM) in experiment [3]; 25 µg/mL (≈ 67.7 µM) in experiment [4]; 50 µg/mL (≈ 135 µM) in experiment [5]; 12.5 µg/mL (≈ 33.8 µM) in experiment [6].
Turning to `CCOC(=O)c1c2c(n3ccccc13)C(=O)c1cc(C(=O)OC)sc1C2=O`, the MIC came out at 12.5 µg/mL (≈ 32.6 µM) in experiment [1]; 50 µg/mL (≈ 130 µM) in experiment [2]; 12.5 µg/mL (≈ 32.6 µM) in experiment [3]; 12.5 µg/mL (≈ 32.6 µM) in experiment [4]; 50 µg/mL (≈ 130 µM) in experiment [5]; 50 µg/mL (≈ 130 µM) in experiment [6].
As to `CCOC(=O)c1c2c(n3cc(C)ccc13)C(=O)c1cc(C(=O)OC)sc1C2=O`, the MIC amounted to 25 µg/mL (≈ 62.9 µM) in experiment [1]; 12.5 µg/mL (≈ 31.5 µM) in experiment [2]; 25 µg/mL (≈ 62.9 µM) in experiment [3]; 12.5 µg/mL (≈ 31.5 µM) in experiment [4]; 25 µg/mL (≈ 62.9 µM) in experiment [5]; 6.3 µg/mL (≈ 15.9 µM) in experiment [6].
For `CCOC(=O)c1c2c(n3ccc(OC)cc13)C(=O)c1cc(C(=O)OC)sc1C2=O`, the minimum inhibitory concentration (MIC) in experiment [1] was found to be 100 µg/mL (≈ 242 µM); in experiment [2] it was 50 µg/mL (≈ 121 µM); in experiment [3] it was 100 µg/mL (≈ 242 µM); in experiment [4], 50 µg/mL (≈ 121 µM); in experiment [5], 50 µg/mL (≈ 121 µM); in experiment [6], 50 µg/mL (≈ 121 µM).
`CCOC(=O)c1c2c(n3ccc(C#N)cc13)C(=O)c1cc(C(=O)OC)sc1C2=O`: the minimal inhibitory concentration (MIC) stood at 50 µg/mL (≈ 122 µM) in experiment [1]; 25 µg/mL (≈ 61.2 µM) in experiment [2]; 3.2 µg/mL (≈ 7.84 µM) in experiment [3]; 12.5 µg/mL (≈ 30.6 µM) in experiment [4]; 12.5 µg/mL (≈ 30.6 µM) in experiment [5]; 50 µg/mL (≈ 122 µM) in experiment [6].
Take `CCOC(=O)c1c2c(n3cc(F)ccc13)C(=O)c1cc(C(=O)OC)sc1C2=O`: the MIC came out at 12.5 µg/mL (≈ 31.1 µM) in experiment [1]; 12.5 µg/mL (≈ 31.1 µM) in experiment [2]; 50 µg/mL (≈ 125 µM) in experiment [3]; 50 µg/mL (≈ 125 µM) in experiment [4]; 6.3 µg/mL (≈ 15.7 µM) in experiment [5]; 12.5 µg/mL (≈ 31.1 µM) in experiment [6].
For the compound `CCOC(=O)c1c2c(n3cc(Cl)ccc13)C(=O)c1cc(C(=O)OC)sc1C2=O`, the MIC in experiment [1] came out at 6.3 µg/mL (≈ 15.1 µM); in experiment [2] it was 25 µg/mL (≈ 59.8 µM); in experiment [3] it was 6.3 µg/mL (≈ 15.1 µM); in experiment [4], 6.3 µg/mL (≈ 15.1 µM); in experiment [5], 6.3 µg/mL (≈ 15.1 µM); in experiment [6], 25 µg/mL (≈ 59.8 µM).
In the case of `CCOC(=O)c1c2c(n3cc(Br)ccc13)C(=O)c1cc(C(=O)OC)sc1C2=O`, the MIC in experiment [1] is 12.5 µg/mL (≈ 27 µM); in experiment [2] it was 1.6 µg/mL (≈ 3.46 µM); in experiment [3] it was 3.2 µg/mL (≈ 6.92 µM); in experiment [4], 1.6 µg/mL (≈ 3.46 µM); in experiment [5], 3.2 µg/mL (≈ 6.92 µM); in experiment [6], 1.6 µg/mL (≈ 3.46 µM).
Consider `COC(=O)c1cc2c(OC)ccc(OC)c2s1`, for which the minimum inhibitory concentration (MIC) was 50 µg/mL (≈ 198 µM) in experiment [1]; above 100 µg/mL in experiment [2]; 100 µg/mL (≈ 396 µM) in experiment [3]; above 100 µg/mL in experiment [4]; 100 µg/mL (≈ 396 µM) in experiment [5]; 100 µg/mL (≈ 396 µM) in experiment [6].
As to `COC(=O)c1cc2c(s1)C(=O)C(Cl)=C([n+]1ccc(Cl)cc1)C2=O.[Cl-]`, the MIC in experiment [1] amounted to 50 µg/mL; in experiment [2] it was 12.5 µg/mL; in experiment [3], 3.2 µg/mL; in experiment [4], 25 µg/mL; in experiment [5], 12.5 µg/mL; in experiment [6], 12.5 µg/mL.
With `COC(=O)c1cc2c(s1)C(=O)C(Cl)=C([n+]1ccc(C#N)cc1)C2=O.[Cl-]`, the MIC in experiment [1] came out at 50 µg/mL; in experiment [2] it was 6.3 µg/mL; in experiment [3] it was 3.2 µg/mL; in experiment [4], 50 µg/mL; in experiment [5] it was 25 µg/mL; in experiment [6] it was 6.3 µg/mL.
Take `CCc1ccc[n+](C2=C(Cl)C(=O)c3sc(C(=O)OC)cc3C2=O)c1.[Cl-]`: the minimal inhibitory concentration (MIC) in experiment [1] is 50 µg/mL; in experiment [2], 12.5 µg/mL; in experiment [3] it was 6.3 µg/mL; in experiment [4] it was 25 µg/mL; in experiment [5], 50 µg/mL; in experiment [6], 12.5 µg/mL.
Consider `COC(=O)c1cc2c(s1)C(=O)C(Cl)=C([n+]1ccc(OC)cc1)C2=O.[Cl-]`, for which the minimal inhibitory concentration (MIC) in experiment [1] was determined as 50 µg/mL; in experiment [2] it was 50 µg/mL; in experiment [3], 100 µg/mL; in experiment [4], 50 µg/mL; in experiment [5], 100 µg/mL; in experiment [6] it was 50 µg/mL.
With `COC(=O)c1cc2c(s1)C(=O)C(Cl)=C([n+]1cccc(Cl)c1)C2=O.[Cl-]`, the minimum inhibitory concentration (MIC) in experiment [1] was 3.2 µg/mL; in experiment [2], 50 µg/mL; in experiment [3], 3.2 µg/mL; in experiment [4], 1.6 µg/mL; in experiment [5], 3.2 µg/mL; in experiment [6], 3.2 µg/mL.
For the compound `COC(=O)c1cc2c(s1)C(=O)C(Cl)=C([n+]1cccc(Br)c1)C2=O.[Cl-]`, the MIC in experiment [1] amounted to 25 µg/mL; in experiment [2] it was 50 µg/mL; in experiment [3] it was 12.5 µg/mL; in experiment [4] it was 50 µg/mL; in experiment [5], 50 µg/mL; in experiment [6], 50 µg/mL.
In the case of `OC(Cn1cncn1)(Cn1cncn1)c1ccc(F)cc1F` [FLUCONAZOLE], the MIC in experiment [1] was 25 µg/mL (≈ 81.6 µM); in experiment [2] it was 6.3 µg/mL (≈ 20.6 µM); in experiment [3], 6.3 µg/mL (≈ 20.6 µM); in experiment [4], 3.2 µg/mL (≈ 10.4 µM); in experiment [5], 50 µg/mL (≈ 163 µM); in experiment [6] it was 25 µg/mL (≈ 81.6 µM).
As to `Nc1nc(=O)[nH]cc1F` [FLUCYTOSINE], the MIC came to 6.3 µg/mL (≈ 48.8 µM) in experiment [1]; 6.3 µg/mL (≈ 48.8 µM) in experiment [2]; 6.3 µg/mL (≈ 48.8 µM) in experiment [3]; 6.3 µg/mL (≈ 48.8 µM) in experiment [4]; 3.2 µg/mL (≈ 24.8 µM) in experiment [5]; 25 µg/mL (≈ 194 µM) in experiment [6].
